Source: article PMC4697807, “Novel Zn^2+ Modulated GPR39 Receptor Agonists Do Not Drive Acute Insulin Secretion in Rodents” (PLoS ONE, 2015)
Where two headings read alike, the source gives them in different places.

Legend:
GPR39 = target: T1, GPR39 (Homo sapiens, UniProt O43194); assay: DMR positive allosteric modulator (PAM) experiments, compound and Zn^2+ interdependencies; type: cell-based; design: Full length human (AF034633), rat (DM091294) and mouse (BC085285) GPR39; expressed in transfected cells
T1 sequence (O43194 1-453): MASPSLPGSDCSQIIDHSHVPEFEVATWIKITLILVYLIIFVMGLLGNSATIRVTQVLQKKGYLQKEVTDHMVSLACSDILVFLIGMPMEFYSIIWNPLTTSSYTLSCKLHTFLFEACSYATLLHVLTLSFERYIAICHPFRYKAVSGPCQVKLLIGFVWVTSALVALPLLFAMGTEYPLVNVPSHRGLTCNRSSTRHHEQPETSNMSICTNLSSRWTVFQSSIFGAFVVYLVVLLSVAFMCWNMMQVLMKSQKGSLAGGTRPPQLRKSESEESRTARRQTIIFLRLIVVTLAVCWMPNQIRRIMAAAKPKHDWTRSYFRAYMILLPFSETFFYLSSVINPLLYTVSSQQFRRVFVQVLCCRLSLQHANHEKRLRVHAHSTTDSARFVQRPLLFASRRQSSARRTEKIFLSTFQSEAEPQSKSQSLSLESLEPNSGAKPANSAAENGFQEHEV
Protocol: (§1) DMR assays were performed using an Epic instrument (Corning Inc., Corning, NY). 12,000 cells per well were cultured for 24 h in 384-well fibronectin-coated Epic biosensor plates (Corning). On the day of experiment, culture medium was removed and replaced with 30 μl buffer A (HBSS, HEPES 20 mM pH7.4, 1% DMSO, 0.01% BSA) using an EL406 (Bio-Tek). Plates were incubated at 26 °C for 1 h inside the Epic to allow for temperature equilibration. A baseline was read for 2 min, and then 15 μl compounds in buffer A were added using a CyBi-Well vario (CyBio) and DMR was detected during 45 min.
Concentration response curves for the interaction between ortosteric and allosteric ligands in the DNR assay were globally fitted to the operational model of allosterism and agonism as described in Leach et al.. Binding data were fitted using one site or two site binding models.
Utilizing the DMR platform, positive allosteric modulator (PAM) experiments were performed in order to more accurately determine the influences of Zn^2+ on the three compounds, see Fig 4. Compound dose responses were generated at 10 different Zn^2+ concentrations, spanning 0 to 30 μM. The presence of Zn^2+ increased potencies of compounds up to 10000-fold. Data were initially globally fitted to the operational model of allosterism and agonism described by Leach et al. However, fits obtained were not of sufficient quality. We therefore decided to calculate modulation in a more simplistic way, here called PAM EC50 and defined as the concentration of modulator (Zn^2+) causing half maximum potentiation of agonist potency.

mGPR39 = target: T2, mGPR39 (Mus musculus, UniProt Q5U431); assay: DMR label-free assay, HEK293s cells transfected with mouse GPR39; type: cell-based; conditions: for Efficacy at 33 μM: AZ1395 100% reference
T2 construct: Full length human (AF034633), rat (DM091294) and mouse (BC085285) GPR39; expressed in transfected cells; host or cells: HEK293s (ATCC CRL-1573), pIRESneo3 vector, selected clones
T2 sequence (Q5U431 1-456): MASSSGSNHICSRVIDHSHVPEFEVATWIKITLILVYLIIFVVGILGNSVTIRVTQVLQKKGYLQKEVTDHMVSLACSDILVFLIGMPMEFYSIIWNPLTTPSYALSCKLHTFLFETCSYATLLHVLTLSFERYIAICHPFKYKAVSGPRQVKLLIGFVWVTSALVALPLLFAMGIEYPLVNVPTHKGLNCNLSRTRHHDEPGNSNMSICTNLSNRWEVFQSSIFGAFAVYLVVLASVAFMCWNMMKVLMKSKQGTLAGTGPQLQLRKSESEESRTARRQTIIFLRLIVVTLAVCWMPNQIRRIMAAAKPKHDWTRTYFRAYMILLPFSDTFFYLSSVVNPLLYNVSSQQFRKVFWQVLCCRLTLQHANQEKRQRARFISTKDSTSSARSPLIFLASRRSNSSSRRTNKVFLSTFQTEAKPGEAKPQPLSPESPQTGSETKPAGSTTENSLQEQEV
Source text: Full length human (AF034633), rat (DM091294) and mouse (BC085285) GPR39 (GeneArt–Life Technologies, Carlsbad, CA) were subcloned into the pIRESneo3 vector (Clontech, Mountain View, CA). The resulting expression vectors hGPR39-, rGPR39- and mGPR39-pIRESneo3 were transfected into HEK293s cells (ATCC CRL-1573) using Lipofectamine 2000 (Life Technologies). Individual clones were isolated using flow cytometry with a FACSVantage SE DIVA (Becton Dickinson, Franklin Lakes, NJ) and clones were chosen based on responses to Zn^2+ measured in a cAMP assay (see below). […] HEK293s-derived cell lines were cultured at 37°C, 10% CO2 and 95% humidity in DMEM supplemented with 10% FBS and 600 μg/ml Geneticin (Life Technologies). The mouse pancreas epithelial cell line NIT-1 (ATCC CRL-2055) with endogenous expression of GPR39 was cultured at 37°C, 5% CO2, and 95% humidity in Ham´s F12 (Life Technologies) supplemented with 10% FBS.
as §1
Concentration response data were fitted with a four parameter logistic fit using Eq 1, y=A+((B−A)/1+((C/x)^D))) (1) where A is no activation, B is full activation, C is the EC50 and D is the Hill slope.

[1] = Isothermal titration calorimetry (ITC) of compound with ZnCl2; conditions: ITC at 30°C; single site binding model; ± SD; read-out: K D (Zn^2+-interaction)
Protocol: To determine the binding affinities of the discussed compounds for Zn^2+, isothermal titration calorimetry experiments were conducted on a MicroCal ITC-200 system (Malvern Instruments) at a temperature of 30°C. The compounds, provided as a DMSO stock solution of 10 mM, were diluted in 50 mM HEPES (pH 7.4) and 150 mM NaCl to reach a final nominal concentration of 400 μM (= 4% (v/v) final DMSO concentration). Complete titration of the compounds was typically achieved by injecting 27 x 1.3 μl aliquots of 5 mM ZnCl2 provided in a matching buffer. The thermodynamic binding parameters were extracted by non-linear regression analysis of the binding isotherms (Microcal Origin version 7.0 software package). A single site binding model was applied, yielding binding enthalpy (ΔH), stoichiometry (n), entropy (ΔS), and association constant (Ka). All experiments have been performed in triplicate to allow for error estimations.

[2] = absence (w/o) of Zn^2+, read-out: EC50
[3] = presence of 5 μM Zn^2+, read-out: pEC50 ± SD (converted)

SMILES | EC50 (GPR39; [Zn2+] μM: 0) | EC50 (GPR39; [Zn2+] μM: 1e-7) | EC50 (GPR39; [Zn2+] μM: 5e-7) | EC50 (GPR39; [Zn2+] μM: 1e-6) | EC50 (GPR39; [Zn2+] μM: 5e-6) | EC50 (GPR39; [Zn2+] μM: 7e-6) | EC50 (GPR39; [Zn2+] μM: 1e-5) | EC50 (GPR39; [Zn2+] μM: 2e-5) | EC50 (GPR39; [Zn2+] μM: 3e-5) | EC50 (GPR39; [Zn2+] μM: 3) | Emax (GPR39; in the absence of Zn^2+) | EC50 (mGPR39; [2]) | EC50 (mGPR39; absence (w/o) of Zn^2+, read-out: pEC50 ± SD (converted)) | EC50 (mGPR39; [3]) | Kd [1] | Efficacy at 33 μM (mGPR39; absence (w/o) of Zn^2+) | EC50 (mGPR39; presence of 5 μM Zn^2+, read-out: EC50) | Emax for Zn^2+ alone, of Emax for Zn^2+ together with any of the GPR39 agonists (GPR39; Zn^2+ alone)
N#Cc1ccc(OCCn2ccnc2)c(OCCn2ccnc2)c1 [AZ1395, 3,4-bis-(2-imidazol-1-ylethoxy)-benzonitrile] | 3 µM | 2.6 µM | 2.4 µM | 1.7 µM | 0.057 µM | 0.015 µM | 0.014 µM | 0.0035 µM | 0.0027 µM | 0.16 µM | ~75% | 10000 nM | 10500 nM | 166 nM | 52100 ± 9100 nM |  |  | 
Cc1nc2c(C(=O)O)cnn2c(O)c1Cc1ccc(Cl)cc1 [AZ4237, 6-[(4-chlorophenyl)methyl]-7-hydroxy-5-methyl-pyrazolo[1,5-a]pyrimidine-3-carboxylic acid] | > 33 µM | > 33 µM | > 33 µM | 8.3 µM | 0.058 µM | 0.045 µM | 0.015 µM | 0.0074 µM | 0.003 µM | 0.58 µM |  | > 33000 nM |  | 457 nM | 8720 ± 1060 nM | 12% | 450 nM | 
Cc1nc(-c2nc3c(c(=O)[nH]2)CN(C(=O)c2cccc(Cl)c2F)CC3)cs1 [AZ7914, 6-(3-chloro-2-fluoro-benzoyl)-2-(2-methylthiazol-4-yl)-3,5,7,8-tetrahydropyrido-[4,3-d]pyrimidin-4-one] | > 33 µM | > 33 µM | > 33 µM | > 33 µM | 0.29 µM | 0.09 µM | 0.042 µM | 0.0095 µM | 0.0063 µM | 1.6 µM |  | > 33000 nM |  | 316 nM | 30600 ± 19100 nM | 42% |  | 
[Zn+2] [Zn^2+] |  |  |  |  |  |  |  |  |  |  |  |  |  |  |  |  |  | approximately 35%
